“Also recorded” adds a separate entry of the source. Marks after values point to notes of the source that are not given here.
Key:
[1] = Stability of CLF in whole human blood at 37° C. (Test 1), HPLC-MS/MS; format: in vitro ADME; conditions: for CLF concentration: whole human blood spiked 100 ng/ml, mean ± SEM (n = 2); for CLF remaining: whole human blood, vs To
Method: Fifty microliters (50 μl) of the working solution of CLF were added to 5 ml of human EDTA blood. The final concentration of CLF in blood was of 100 ng/ml. One aliquot of 1 ml of blood was taken (To) and the remaining solution was incubated at 37° C. in a water bath for 30 min, 120 min and 24 h. At the end of each incubation time, 1 ml of blood was taken and plasma was prepared by centrifugation of samples at 2000 g (4° C.) for 10 min. Two equal aliquots of 200 μl were prepared and stored at −70° C. until further analysis. […] Thus, a stock solution of IS at 100 μg/ml in acetonitrile was 50-fold diluted in acetonitrile in order to obtain a final concentration of 2 μg/ml. Then, 200 μl of this solution were added to each plasma sample in order to precipitate the proteins. Samples were vortexed/mixed and centrifuged 5 min at 20,000 g (4° C.). After centrifugation, the clear supernatant (around 250 μl) was transferred into 1.2 ml HPLC glass vials and sealed. Samples were placed into the refrigerated autosampler and 20 μl were injected into the HPLC-MS/MS system. Test samples were injected twice. […] The injected volume of sample was 20 μl and the “full loop” mode was applied. The temperature of the analytical column was kept at 30° C. CLF and its IS were separated on an Acclaim 120 C18 column (5 μm, 2.1×100 mm, Dionex) by elution with a linear gradient of acetonitrile in water as described in Table 6. An ion trap mass spectrometer equipped with an ESI interface was operated in the positive ionization mode. For each compound, the most abundant ion formed in MS was selected for MS/MS fragmentations. In order to increase the sensitivity and the specificity of the method, the MRM mode was selected. The most specific daughter ions formed in MS/MS were used for quantification.

[2] = Stability of CLF spiked directly in human plasma at room temperature and 4° C. (Test 3), HPLC-MS/MS; format: in vitro ADME; conditions: for CLF concentration: human plasma spiked 100 ng/ml, mean ± SEM (n = 2); for CLF remaining: human plasma, vs To; for percentage of compound remaining (by comparing with content at To), lowest over incubation: plasma, up to 24 h
Method: Test 3: […] The final concentration of CLF was of 100 ng/ml. Two aliquots of 200 μl of plasma spiked with CLF were taken (To) and the remaining solution was divided in 2 equal fractions. One fraction was incubated at room temperature and the second one was incubated at 4° C. Two aliquots of 200 μl were taken from both fractions after 30 min, 120 min and 24 h of incubation. Samples were stored at −70° C. until further analysis. […] Thus, a stock solution of IS at 100 μg/ml in acetonitrile was 50-fold diluted in acetonitrile in order to obtain a final concentration of 2 μg/ml. Then, 200 μl of this solution were added to each plasma sample in order to precipitate the proteins. Samples were vortexed/mixed and centrifuged 5 min at 20,000 g (4° C.). After centrifugation, the clear supernatant (around 250 μl) was transferred into 1.2 ml HPLC glass vials and sealed. Samples were placed into the refrigerated autosampler and 20 μl were injected into the HPLC-MS/MS system. Test samples were injected twice. […] The injected volume of sample was 20 μl and the “full loop” mode was applied. The temperature of the analytical column was kept at 30° C. CLF and its IS were separated on an Acclaim 120 C18 column (5 μm, 2.1×100 mm, Dionex) by elution with a linear gradient of acetonitrile in water as described in Table 6. An ion trap mass spectrometer equipped with an ESI interface was operated in the positive ionization mode. For each compound, the most abundant ion formed in MS was selected for MS/MS fragmentations. In order to increase the sensitivity and the specificity of the method, the MRM mode was selected. The most specific daughter ions formed in MS/MS were used for quantification.

[3] = Solubility and stability of CLF in working solutions by HPLC-UV-MS (254 nm); format: physicochemical; conditions: [CLF] = 50 μg/ml
Method: HPLC separation was operated with a mixture of water and acetonitrile containing 0.1% of formic acid and the reversed phase mode was selected. The injected volume of sample was 20 μl and the “full loop” mode was applied. The temperature of the analytical column was kept at 30° C. CLF, its metabolites and its IS were separated on a SunFire C18 column (5 μm, 2.1×100 mm, Waters) by elution with a linear gradient of acetonitrile in water as described in Table 62.
The wavelength of UV detector was scaled at 254 nm. An ion trap mass spectrometer equipped with electrospray ionization (ESI) interface was operated in positive ionization mode. Detection was carried out in the following modes: • MS mode (full scan) in positive ESI for analysis of working and treatment solutions and metabolites identification, • MS/MS mode (MRM, multiple reaction monitoring) in positive ESI for qualitative analysis of CLF, its IS and its metabolites. Briefly, specific parent ions formed for CLF, its IS and its identified metabolites were selected for MS/MS fragmentations.
Two working solutions of CLF were prepared. The first was prepared in 100% methanol for a final concentration of CLF at 109.6 μg/ml (SS CLF-MetOH) and the second was prepared in aqueous ethanol (water/ethanol/sodium hydroxide (50%), at 1000/500/30, v/v/v) for a final concentration of CLF at 71.6 μg/ml (SS CLF-EtOH).
Working solution used during this study were centrifuged 5 min at 3000 g and then diluted in a methanol/water mixture (50/50, v/v) in order to obtain three homogeneous solutions at 50 μg/ml. Then, 200 μl were transferred into 1.2 ml HPLC glass vials and sealed. Samples were placed into the refrigerated auto-sampler and 20 μl were injected into the HPLC-UV-MS system.
A blank sample was included (methanol/water, 50/50, v/v) to clearly distinguish interferences and impurities. The UV detection (scaled at 254 nm) allowed evaluating the solubility of CLF in both solvents by comparing CLF chromatographic peak areas. In case of signs of instability (additional chromatographic peaks), MS and then MS/MS (if needed) detections allowed to identify the impurities formed.

[4] = room temperature (25 ± 2° C.), 0.0 hours
[5] = room temperature (25 ± 2° C.), 0.5 hours
[6] = room temperature (25 ± 2° C.), 2.0 hours
[7] = room temperature (25 ± 2° C.), 24.0 hours

CC(CCC(=O)NC(CCCCNC(=S)Nc1ccc(-c2c3ccc(=O)cc-3oc3cc(O)ccc23)c(C(=O)O)c1)C(=O)O)C1CCC2C3C(O)CC4CC(O)CCC4(C)C3CC(O)C12C [CLF, Cholyl-L-Lysyl-Fluorescein]
CLF stability in whole human blood ([1]; 37° C., 24 hours, 100 ng/ml): stable during 24 h; also recorded: stable over 24 hours | plasmatic concentrations measured ([1]; whole blood spiked with 100 ng/ml, 37° C., 0-24 h): 165.1 to 180.3 ng/mL | repartition of CLF in blood ([1]; whole blood spiked with CLF, plasma prepared by centrifugation): mainly distributed in the plasmatic fraction; also recorded: mainly distributed in the plasma fraction | percentage of compound remaining (by comparing with content at To), lowest over incubation ([1]; whole blood, 37° C., up to 24 h): at least 104.1% | CLF concentration ([1]; 37° C., 0.0 hours, plasmatic concentration): 165.1 ± 2.6 ng/mL | CLF concentration ([1]; 37° C., 0.5 hours): 171.9 ± 6.7 ng/mL | CLF concentration ([1]; 37° C., 2.0 hours): 180.3 ± 7.4 ng/mL | CLF concentration ([1]; 37° C., 24.0 hours): 173.8 ± 1.7 ng/mL | CLF remaining ([1]; 37° C., 0.0 hours): 100.0% | CLF remaining ([1]; 37° C., 0.5 hours): 104.1% | CLF remaining ([1]; 37° C., 2.0 hours): 109.2% | CLF remaining ([1]; 37° C., 24.0 hours): 105.3% | CLF stability directly in plasma ([2]; 4° C. and room temperature, 24 h): stable for 24 h | CLF concentration ([2]; 4° C., 0.0 hours): 101.9 ± 4.6 ng/mL | CLF concentration ([2]; 4° C., 0.5 hours): 101.4 ± 3.5 ng/mL | CLF concentration ([2]; 4° C., 2.0 hours): 89.9 ± 3.4 ng/mL | CLF concentration ([2]; 4° C., 24.0 hours): 94.5 ± 3.6 ng/mL | CLF concentration [2, 4]: 101.9 ± 4.6 ng/mL | CLF concentration [2, 5]: 85.3 ± 0.0 ng/mL | CLF concentration [2, 6]: 93.2 ± 0.0 ng/mL | CLF concentration [2, 7]: 100.7 ± 3.3 ng/mL | CLF remaining ([2]; 4° C., 0.0 hours): 100.0% | CLF remaining ([2]; 4° C., 0.5 hours): 99.5% | CLF remaining ([2]; 4° C., 2.0 hours): 88.2% | CLF remaining ([2]; 4° C., 24.0 hours): 92.7% | CLF remaining [2, 4]: 100.0% | CLF remaining [2, 5]: 83.7% | CLF remaining [2, 6]: 91.4% | CLF remaining [2, 7]: 98.8% | plasmatic concentrations measured ([2]; plasma spiked with 100 ng/ml, 4° C. and room temperature, 0-24 h): 85.3 to 101.9 ng/mL | percentage of compound remaining (by comparing with content at To), lowest over incubation ([2]; 4° C.): ≥ 88.2% | percentage of compound remaining (by comparing with content at To), lowest over incubation ([2]; room temperature): at least 83.7% | Peak Area, UV detection (254 nm) ([3]; Aqueous ammonium bicarbonate solution (0.1M), other batch of CLF): 5305.5* | peak area of CLF in aqueous ethanol mixture relative to methanol and aqueous ammonium bicarbonate 0.1 M (fold lower) ([3]; HPLC-UV 254 nm, water/ethanol/sodium hydroxide working solution): around 10 fold | Peak Area, UV detection (254 nm) ([3]; SS CLF-EtOH working solution): 470.9 | Peak Area, UV detection (254 nm) ([3]; SS CLF-MetOH working solution): 4395.1

From patent US20150212068A1, “Cholyl-L-Lysyl-Fluorescein Assay” (Novassay SA, priority 2012, published 2015)
